Experiments:
Type in all cases: in vivo
VERPE (Veronica persica) = assay: Pre-emergence herbicidal action against harmful plants; conditions: dosage 320 g/ha, scored visually after 3 weeks (Table E)
Description: (§1) 1. Pre-Emergence Herbicidal Action Against Harmful Plants
(§2) Seeds of monocotyledonous and dicotyledonous weed plants and crop plants are laid out in wood-fiber pots in sandy loam and covered with soil. The compounds of the invention and, for comparative purposes, the compounds known from the prior art, formulated in the form of wettable powders (WP) or as emulsion concentrates (EC), are then applied to the surface of the covering soil as aqueous suspension or emulsion at a water application rate equating to 600 to 800 I/ha with addition of 0.2% of wetting agent. After the treatment, the pots are placed in a greenhouse and kept under good growth conditions for the trial plants. The damage to the test plants is scored visually after a test period of 3 weeks by comparison with untreated controls (herbicidal activity in percent (%): 100% activity=the plants have died, 0% activity=like control plants).

[1] = system: AMARE (Amaranthus retroflexus); assay: as above; conditions: 504 h, dosage 320 g/ha
Description: as §1, §2

[2] = system: CYPES (Cyperus serotinus); assay: as above; conditions: dosage 320 g/ha
Description: as §1, §2

[3] = system: POLCO (Polygonum convolvulus); assay: as above; conditions: dosage 320 g/ha
Description: as §1, §2

[4] = system: MATIN (Matricaria inodora); assay: Post-emergence herbicidal action against harmful plants; conditions: dosage 80 g/ha
Experimental: (§3) 2. Post-Emergence Herbicidal Action Against Harmful Plants
(§4) Seeds of monocotyledonous and dicotyledonous weed and crop plants are laid out in sandy loam in wood-fiber pots, covered with soil and cultivated in a greenhouse under good growth conditions. 2 to 3 weeks after sowing, the test plants are treated at the one-leaf stage. The compounds of the invention, formulated in the form of wettable powders (WP) or as emulsion concentrates (EC), are then sprayed onto the green parts of the plants in the form of an aqueous suspension or emulsion at a water application rate equating to 600 to 800 I/ha, with addition of 0.2% wetting agent. After the test plants have been left to stand in the greenhouse under optimal growth conditions for about 3 weeks, the action of the preparations is assessed visually in comparison to untreated controls (herbicidal action in percent (%): 100% activity=the plants have died, 0% activity=like control plants).

[5] = system: POLCO (Polygonum convolvulus); assay: as above; conditions: dosage 80 g/ha, assessed visually after about 3 weeks (Table L)
Experimental: as §3, §4

AVEFA (Avena fatua) = assay: Pre-emergence herbicidal action against harmful plants; conditions: dosage 320 g/ha, scored visually after 3 weeks vs untreated controls (100% = plants have died, 0% = like control plants)
Description: as §1, §2

[6] = system: LOLMU (Lolium multiflorum); assay: as above; conditions: dosage 320 g/ha
Description: as §1, §2

[7] = system: MATIN (Matricaria inodora); assay: as above; conditions: dosage 320 g/ha, scored visually after 3 weeks (Table F)
Description: as §1, §2

[8] = system: ALOMY (Alopecurus myosuroides); assay: as above; conditions: dosage 320 g/ha, scored visually after 3 weeks (Table C)
Description: as §1, §2

STEME (Stellaria media) = assay: Post-emergence herbicidal action against harmful plants; conditions: dosage 80 g/ha, assessed visually after about 3 weeks (Table K)
Experimental: as §3, §4

[9] = system: PHBPU (Pharbitis purpureum); assay: Pre-emergence herbicidal action against harmful plants; conditions: dosage 320 g/ha, scored visually after 3 weeks (Table I)
Description: as §1, §2

[10] = scored visually after 3 weeks (Table E)
[11] = scored visually after 3 weeks (Table B)
[12] = assessed visually after about 3 weeks (Table L)
[13] = scored visually after 3 weeks vs untreated controls (100% = plants have died, 0% = like control plants)
[14] = scored visually after 3 weeks (Table F)
[15] = scored visually after 3 weeks (Table C)
[16] = assessed visually after about 3 weeks (Table K)
[17] = scored visually after 3 weeks (Table I)

With `CSc1c(C=O)ccc(C(=O)Nc2ncnn2C)c1C` the “Activity against VERPE” value (VERPE (Veronica persica)) was 0% and the pest or weed control at 320 g/ha [1, 10] was 30%.
For `CSc1c(I)ccc(C(=O)Nc2ncnn2C)c1C`, the “Activity against VERPE” value (VERPE (Veronica persica)) was 0% and the pest or weed control at 320 g/ha [1, 10] was 60%.
With `CSc1c(I)ccc(C(=O)Nc2nnnn2C)c1C` the “Activity against CYPES” value [2, 11] was 0% and the “Activity against POLCO” value [3, 11] was 20%.
In the case of `CSc1c(I)ccc(C(=O)Nc2nnc(C)o2)c1C`, the “Activity against MATIN” value [4, 12] is reported as 60% and the “Activity against POLCO” value [5] is reported as 20%.
`CSc1c(N(C)C)ccc(C(=O)Nc2nnnn2C)c1C` was tested, and the “Activity against CYPES” value [2, 11] was 30% and the “Activity against POLCO” value [3, 11] was 0%.
For `CCn1nnnc1NC(=O)c1ccc(C2CC2)c(SC)c1C`, the “Activity against AVEFA” value (AVEFA (Avena fatua)) was 100% and the “Activity against LOLMU” value [6, 13] was 90%.
With `CSc1c(C2CC2)ccc(C(=O)Nc2nnnn2C)c1C` [drawing 21] the “Activity against CYPES” value [2, 11] was 90% and the “Activity against POLCO” value [3, 11] was 90%.
In the case of `CSc1c(C2OCCO2)ccc(C(=O)Nc2nnnn2C)c1C` [drawing 24], the “Activity against CYPES” value [2, 11] is reported as 0% and the “Activity against POLCO” value [3, 11] is reported as 30%.
With `CCn1nnnc1NC(=O)c1ccc(C)c(SC)c1C` [reference compound] the “Activity against AVEFA” value (AVEFA (Avena fatua)) was 60% and the “Activity against LOLMU” value [6, 13] was 30%.
In the case of `CSc1c(C2CC2)ccc(C(=O)Nc2ncnn2C)c1C`, the “Activity against VERPE” value (VERPE (Veronica persica)) is reported as 90% and the pest or weed control at 320 g/ha [1, 10] is reported as 100%.
For `COSc1c(C2CC2)ccc(C(=O)Nc2ncnn2C)c1C`, the “Activity against MATIN” value [7] was 80% and the pest or weed control at 320 g/ha [1, 14] was 90%.
In the case of `CSc1c(C=O)ccc(C(=O)Nc2nnnn2C)c1C` [drawing 29], the “Activity against ALOMY” value [8] is reported as 0% and the pest or weed control at 320 g/ha [1, 15] is reported as 0%.
In the case of `CSc1c(C2CC2)ccc(C(=O)Nc2ncc(C)o2)c1C`, the “Activity against MATIN” value [4, 16] is reported as 80% and the “Activity against STEME” value (STEME (Stellaria media)) is reported as 90%.
With `CSc1c(C(F)(F)F)ccc(C(=O)Nc2nnc(C)o2)c1C` the “Activity against MATIN” value [4, 12] was 60% and the “Activity against POLCO” value [5] was 0%.
`CSc1c(C2CC2)ccc(C(=O)Nc2nnnn2C)c1C` [drawing 18] was tested, and the “Activity against CYPES” value [2, 13] was 90% and the “Activity against POLCO” value [3, 13] was 90%.
`CSc1c(C2OCCO2)ccc(C(=O)Nc2ncnn2C)c1C` was tested, and the “Activity against VERPE” value (VERPE (Veronica persica)) was 0% and the pest or weed control at 320 g/ha [1, 10] was 0%.
`CSc1c(C#N)ccc(C(=O)Nc2ncnn2C)c1C` was tested, and the “Activity against VERPE” value (VERPE (Veronica persica)) was 70% and the pest or weed control at 320 g/ha [1, 10] was 80%.
With `CSc1c(C2OCCO2)ccc(C(=O)Nc2nnnn2C)c1C` [drawing 28] the “Activity against ALOMY” value [8] was 0% and the pest or weed control at 320 g/ha [1, 15] was 0%.
With `CCn1nnnc1NC(=O)c1ccc(C)c(SOC)c1C` the “Activity against PHBPU” value [9] was 60% and the “Activity against LOLMU” value [6, 17] was 30%.
With `COSc1c(Cl)ccc(C(=O)Nc2ncnn2C)c1C` the “Activity against MATIN” value [7] was 30% and the pest or weed control at 320 g/ha [1, 14] was 70%.
`CSc1cccc(C(=O)Nc2nnnn2C)c1C` [drawing 27] was tested, and the “Activity against ALOMY” value [8] was 20% and the pest or weed control at 320 g/ha [1, 15] was 20%.
With `COSc1c(C2CC2)ccc(C(=O)Nc2nnnn2C)c1C` the “Activity against ALOMY” value [8] was 90% and the pest or weed control at 320 g/ha [1, 15] was 100%.
In the case of `CSc1cccc(C(=O)Nc2nnnn2C)c1C` [drawing 19, reference compound], the “Activity against CYPES” value [2, 13] is reported as 30% and the “Activity against POLCO” value [3, 13] is reported as 0%.
`CSc1c(C2CC2)ccc(C(=O)Nc2nnc(C)o2)c1C` was tested, and the “Activity against MATIN” value [4, 12] was 80% and the “Activity against POLCO” value [5] was 60%.
For `CCn1nnnc1NC(=O)c1ccc(C2CC2)c(SOC)c1C`, the “Activity against PHBPU” value [9] was 100% and the “Activity against LOLMU” value [6, 17] was 100%.
With `CSc1c(Br)ccc(C(=O)Nc2nnnn2C)c1C` [reference compound] the “Activity against CYPES” value [2, 13] was 0% and the “Activity against POLCO” value [3, 13] was 70%.
In the case of `COSc1c(C=O)ccc(C(=O)Nc2ncnn2C)c1C`, the “Activity against MATIN” value [7] is reported as 0% and the pest or weed control at 320 g/ha [1, 14] is reported as 40%.
`COSc1c(C#N)ccc(C(=O)Nc2ncnn2C)c1C` was tested, and the “Activity against MATIN” value [7] was 0% and the pest or weed control at 320 g/ha [1, 14] was 60%.
In the case of `CSc1c(Cl)ccc(C(=O)Nc2nnc(C)o2)c1C`, the “Activity against MATIN” value [4, 16] is reported as 60% and the “Activity against STEME” value (STEME (Stellaria media)) is reported as 70%.
In the case of `CSc1c(C=O)ccc(C(=O)Nc2nnnn2C)c1C` [drawing 25], the “Activity against CYPES” value [2, 11] is reported as 0% and the “Activity against POLCO” value [3, 11] is reported as 0%.
For `COSc1c(C2OCCO2)ccc(C(=O)Nc2ncnn2C)c1C`, the “Activity against MATIN” value [7] was 0% and the pest or weed control at 320 g/ha [1, 14] was 20%.
In the case of `CSc1c(Br)ccc(C(=O)Nc2nnc(C)o2)c1C`, the “Activity against MATIN” value [4, 16] is reported as 40% and the “Activity against STEME” value (STEME (Stellaria media)) is reported as 60%.
